Experiments:
ryegrass, Italian [1] = assay: Test A postemergence; type: in vivo, Lolium multiflorum; settings: 0 to 100 scale (0 no effect, 100 complete control), approx. 10 d
In short: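 Ratings reflect visual injury after ~10 d in greenhouse, 0 = no effect, 100 = complete control. Postemergence treatment was applied to one- to two-leaf seedlings; preemergence treatment was a directed soil spray at planting.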

ryegrass, Italian [2] = assay: Test C preemergence; type: in vivo, Lolium multiflorum; settings: for Ryegrass, Italian plant response rating (0 to 100): Preemergence, visual rating after 13 to 15 d; for Plant response rating (scale of 0 to 100 where 0 is no effect and 100 is complete control): Ryegrass, Italian, preemergence
Description: (§1) Seeds of plant species selected from blackgrass (Alopecurus myosuroides), ryegrass, Italian (Italian ryegrass, Lolium multiflorum), wheat (winter wheat, Triticum aestivum), galium (catchweed bedstraw, Galium aparine), corn (Zea mays), crabgrass, large (large crabgrass, Digitaria sanguinalis), foxtail, giant, (giant foxtail, Setaria faberii), johnsongrass (Sorghum halepense), lambsquarters (Chenopodium album), morningglory (Ipomoea coccinea), nutsedge, yellow (yellow nutsedge, Cyperus esculentus), pigweed (Amaranthus retroflexus), ragweed (common ragweed, Ambrosia elatior), soybean (Glycine max), barnyardgrass (Echinochloa crus-galli), oilseed rape (Brassica napus), waterhemp (common waterhemp, Amaranthus rudis), and velvetleaf (Abutilon theophrasti) were planted into a blend of loam soil and sand and treated preemergence with test chemicals formulated in a non-phytotoxic solvent mixture which included a surfactant. At the same time, plants selected from these crop and weed species and also chickweed (common chickweed, Stellaria media), oat, wild (wild oat, Avena fatua), and kochia (Kochia scoparia), were planted in pots containing Sunshine Redi-Earth® planting medium comprising spaghnum peat moss, vermiculite, starter nutrients and dolomitic limestone and treated with postemergence applications of test chemicals formulated in the same manner. Plants ranged in height from 2 to 18 cm (1- to 4-leaf stage) for postemergence treatments. […] A dash (-) response means no test result.

wheat (winter wheat) = assay: Test C preemergence; type: in vivo, Triticum aestivum; settings: for Wheat plant response rating (0 to 100): Preemergence, visual rating after 13 to 15 d; for Plant response rating (scale of 0 to 100 where 0 is no effect and 100 is complete control): Wheat, preemergence, 250 g ai/ha
Description: as §1

speedwell = assay: Test D preemergence; type: in vivo, Veronica persica; settings: for Plant response rating (0 to 100), Speedwell: 16 g ai/ha, 0 is no effect, 100 is complete control; for Plant response rating: Speedwell: scale 0 to 100
Description: (§2) Seeds of plant species selected from bluegrass (annual bluegrass, Poa annua), blackgrass (Alopecurus myosuroides), canarygrass (Phalaris minor), chickweed (common chickweed, Stellaria media), galium (catchweed bedstraw, Galium aparine), bromegrass, down (downy bromegrass, Bromus tectorum), Russian thistle (Salsola kali), field poppy (Papaver rhoeas), field violet (Viola arvensis), foxtail, green (green foxtail, Setaria viridis), deadnettle (henbit deadnettle, Lamium amplexicaule), ryegrass, Ital. (Italian ryegrass, Lolium multiflorum), kochia (Kochia scoparia), lambsquarters (Chenopodium album), oilseed rape (Brassica napus), pigweed (Amaranthus retroflexus), chamomile (scentless chamomile, Matricaria inodora), speedwell (bird's-eye speedwell, Veronica persica), barley, spring (spring barley, Hordeum vulgare), wheat, spring (spring wheat, Triticum aestivum), buckwheat, wild (wild buckwheat, Polygonum convolvulus), wild mustard (Sinapis arvensis), oat, wild (wild oat, Avena fatua), radish, wild (wild radish, Raphanus raphanistrum), […]), barley, winter (winter barley, Hordeum vulgare), and wheat, winter (winter wheat, Triticum aestivum) were planted into a silt loam soil and treated preemergence with test chemicals formulated in a non-phytotoxic solvent mixture which included a surfactant. At the same time, these species were planted in pots containing Sunshine Redi-Earth® planting medium comprising spaghnum peat moss, vermiculite, starter nutrients and dolomitic limestone and treated with postemergence applications of the test chemicals formulated in the same manner. Plants ranged in height from 2 to 18 cm (1- to 4-leaf stage). Treated plants and controls were maintained in a controlled growth environment for 14 to 21 d after which time all species were compared to controls and visually evaluated. […] A dash (-) response means no test result.

radish, wild = assay: Test D preemergence; type: in vivo, Raphanus raphanistrum; settings: for Plant response rating (0 to 100), Radish, Wild: 16 g ai/ha, 0 is no effect, 100 is complete control; for Plant response rating: Radish, Wild: scale 0 to 100
Description: as §2

blackgrass = assay: Test D postemergence; type: in vivo, Alopecurus myosuroides; settings: scale 0 to 100
Description: as §2

lambsquarters = assay: Test D postemergence; type: in vivo, Chenopodium album; settings: scale 0 to 100
Description: as §2

windgrass = assay: Test D postemergence; type: in vivo, Apera spica-venti; settings: scale 0 to 100
Description: as §2

SMILES	Plant response rating, Ryegrass, Italian (ryegrass, Italian [1]; 125 g ai/ha)	Plant response rating, Ryegrass, Italian (ryegrass, Italian [1]; 500 g ai/ha)	Ryegrass, Italian plant response rating (0 to 100) (ryegrass, Italian [2]; 31 g ai/ha)	Ryegrass, Italian plant response rating (0 to 100) (ryegrass, Italian [2]; 62 g ai/ha)	Plant response rating (scale of 0 to 100 where 0 is no effect and 100 is complete control) (ryegrass, Italian [2]; 125 g ai/ha)	Plant response rating (scale of 0 to 100 where 0 is no effect and 100 is complete control) (ryegrass, Italian [2]; 250 g ai/ha)	Wheat plant response rating (0 to 100) (wheat (winter wheat); 31 g ai/ha)	Wheat plant response rating (0 to 100) (wheat (winter wheat); 62 g ai/ha)	Plant response rating (scale of 0 to 100 where 0 is no effect and 100 is complete control) (wheat (winter wheat))	Plant response rating (0 to 100), Speedwell (speedwell)	Plant response rating: Speedwell (speedwell; 62 g ai/ha)	Plant response rating: Speedwell (speedwell; 125 g ai/ha)	Plant response rating (0 to 100), Radish, Wild (radish, wild)	Plant response rating: Radish, Wild (radish, wild; 62 g ai/ha)	Plant response rating: Radish, Wild (radish, wild; 125 g ai/ha)	Plant response rating: Blackgrass (blackgrass; 16 g ai/ha)	Plant response rating: Blackgrass (blackgrass; 31 g ai/ha)	Plant response rating: Blackgrass (blackgrass; 62 g ai/ha)	Plant response rating: Blackgrass (blackgrass; 125 g ai/ha)	Plant response rating: Lambsquarters (lambsquarters; 16 g ai/ha)	also measured
FC(F)(F)COc1nc(-c2ccccc2)nn1Cc1ccnc(C(F)(F)F)c1 [Compound 24]	30	60	5	15	85	90	0	0	5	80	100	100	45	75	100	25	35	45	65	65	Plant response rating: Lambsquarters (lambsquarters; 31 g ai/ha): 75; Plant response rating: Lambsquarters (lambsquarters; 62 g ai/ha): 80; Plant response rating: Lambsquarters (lambsquarters; 125 g ai/ha): 85; Plant response rating: Windgrass (windgrass; 16 g ai/ha): 20; Plant response rating: Windgrass (windgrass; 31 g ai/ha): 35; Plant response rating: Windgrass (windgrass; 62 g ai/ha): 45; Plant response rating: Windgrass (windgrass; 125 g ai/ha): 60
CCOc1nc(-c2ccccc2)nn1Cc1ccnc(C(F)(F)F)c1 [Compound 27]	50	90	25	30	90	95	20	25	60	95	100	100	75	85	100	45	50	55	65	85	Plant response rating: Lambsquarters (lambsquarters; 31 g ai/ha): 95; Plant response rating: Lambsquarters (lambsquarters; 62 g ai/ha): 95; Plant response rating: Lambsquarters (lambsquarters; 125 g ai/ha): 95; Plant response rating: Windgrass (windgrass; 16 g ai/ha): 60; Plant response rating: Windgrass (windgrass; 31 g ai/ha): 65; Plant response rating: Windgrass (windgrass; 62 g ai/ha): 70; Plant response rating: Windgrass (windgrass; 125 g ai/ha): 70
